Earlier results in US9173857B2, “Controlled dose drug delivery system” (Shire LLC, priority 2006, dated 2015).

Columns and labels:
[1] = pulsatile capsule with release after a nominal 5-hr period; majority of subjects
[2] = wax-surfactant coating, higher coating level (60%)

| amounts of the drug observed in the blood [1] | lag time of drug release [2] | time required for complete release after the lag time [2] | SMILES |
| --- | --- | --- | --- |
| no measurable amounts |  |  | C[C@H](CS)C(=O)N1CCC[C@H]1C(=O)O [captopril] |
|  | two-hour | three hours | Cn1c(=O)c2[nH]cnc2n(C)c1=O [theophylline] |
